In experiment [1] the test system is B16. In words: Tested for cytotoxicity against B16 melanoma cells expressed as the ED50 to that of ED50 of paclitaxel. In kind it is functional, Mus musculus.
Experiment [2] can be described thus: Tested for activity using microtubule assembly assay expressed as the ED50 to that of ED50 of paclitaxel. In kind it is functional.
Experiment [3] in a line: Inhibitory activity against microtubule assembly stimulated by paclitaxel (1 uM) at a concentration of 20 uM of the compound; No inhibition. In kind it is functional.
In experiment [4] the test system is B16. In words: Tested for cytotoxicity against B16 melanoma cells expressed as the ED50 to that of ED50 of paclitaxel; In active. The settings on record: Mus musculus. Format: functional, cell-based.
Experiment [5] can be described thus: Tested for activity using microtubule assembly assay expressed as the ED50 to that of ED50 of paclitaxel; In active. Format: functional.

The source made the active and inactive calls. The calls are words filed in the database; no cut-off is given here.

For the molecule `CC(=O)O[C@H]1C(=O)[C@@]2(C)[C@H]([C@H](OC(=O)c3ccccc3)[C@]3(O)CC(OC(=O)[C@H](O[Si](C)(C)C(C)(C)C)[C@@H](NC(=O)c4ccccc4)c4cccc(I)c4)C(C)=C1C3(C)C)[C@]1(OC(C)=O)CO[C@@H]1C[C@@H]2O` (stereo not given in full), the Ratio worked out at 27 with B16 [1] and 4.6 in experiment [2].

For the molecule `CC(=O)O[C@H]1C(=O)[C@@]2(C)[C@H]([C@@H]3OC(=O)c4cccc(c4)/C=C\c4ccccc4[C@H](NC(=O)c4ccccc4)[C@@H](O)C(=O)OC4C[C@]3(O)C(C)(C)C1=C4C)[C@]1(OC(C)=O)CO[C@@H]1C[C@@H]2O`, in experiment [3], the Ratio entry is “inactive”.

`CC(=O)O[C@H]1C(=O)[C@@]2(C)[C@H]([C@H](OC(=O)c3ccccc3)[C@]3(O)CC(OC(=O)/C=C(\NC(=O)c4ccccc4)c4cccc(I)c4)C(C)=C1C3(C)C)[C@]1(OC(C)=O)CO[C@@H]1C[C@@H]2O` (stereo not given in full): the Ratio entry (in the experiment on B16 [4]; in experiment [5]) was “inactive” in each case.

For the origin of these results see ChEMBL document CHEMBL1131859, “Conformationally restricted paclitaxel analogues: macrocyclic mimics of the "hydrophobic collapse" conformation” (1999).
